Source: ChEMBL document CHEMBL3853261 (Medchemcomm, 2016)
In brackets after ≈: the same amount, converted by molar mass. Activity calls are given as the source filed them. The calls are words filed in the database; no cut-off is given here.

Tests used:
[1] = test system: Mycobacterium tuberculosis; experiment: Antibacterial activity against Mycobacterium tuberculosis MTCC 300 after 7 days by resazurin microtiter assay; assay type: functional; conditions: for MIC: MTCC 300, 168 h
[2] = Hemolytic activity in human erythrocytes after 1 hr; assay type: ADME, cell-based, Erythrocyte; conditions: read-out: Activity

| Compound | MIC [1] | hemolysis at 1 h [2] | growth inhibition (GI) [1] |
| --- | --- | --- | --- |
| NC(=S)N/N=C1\CSC(n2nc(-c3cn(-c4ccccc4)nc3-c3cccc([N+](=O)[O-])c3)c(O)c2-c2ccc([N+](=O)[O-])cc2)=N1 | 3.9 µg/mL (≈ 6.09 µM) | < 5% |  |
| NC(=S)N/N=C1\CSC(n2nc(-c3cn(-c4ccccc4)nc3-c3cccc([N+](=O)[O-])c3)c(O)c2-c2cccc([N+](=O)[O-])c2)=N1 | 3.9 µg/mL (≈ 6.09 µM) | < 5% |  |
| NNC(=O)c1ccncc1 [ISONIAZID] | 0.48 µg/mL (≈ 3.5 µM) |  |  |
| NC(=S)N/N=C1\CSC(n2nc(-c3cn(-c4ccccc4)nc3-c3ccccc3)c(O)c2-c2ccccc2)=N1 |  | < 5% | Active |
| NC(=S)N/N=C1\CSC(n2nc(-c3cn(-c4ccccc4)nc3-c3ccc(Cl)cc3)c(O)c2-c2ccccc2)=N1 |  | < 5% | Active |
| NC(=S)N/N=C1\CSC(n2nc(-c3cn(-c4ccccc4)nc3-c3ccc([N+](=O)[O-])cc3)c(O)c2-c2ccc([N+](=O)[O-])cc2)=N1 | 62.5 µg/mL (≈ 97.6 µM) | < 5% |  |
| NC(=S)N/N=C1\CSC(n2nc(-c3cn(-c4ccccc4)nc3-c3ccc([N+](=O)[O-])cc3)c(O)c2-c2ccc(Cl)cc2)=N1 |  | < 5% | Active |
| NC(=S)N/N=C1\CSC(n2nc(-c3cn(-c4ccccc4)nc3-c3ccc(Br)cc3)c(O)c2-c2ccc([N+](=O)[O-])cc2)=N1 |  | < 5% |  |
| NC(=S)N/N=C1\CSC(n2nc(-c3cn(-c4ccccc4)nc3-c3cccc([N+](=O)[O-])c3)c(O)c2-c2ccc(Cl)cc2)=N1 | 62.5 µg/mL (≈ 99.2 µM) | < 5% |  |
| NC(=S)N/N=C1\CSC(n2nc(-c3cn(-c4ccccc4)nc3-c3ccc(Br)cc3)c(O)c2-c2ccc(Br)cc2)=N1 |  | < 5% |  |
| NC(=S)N/N=C1\CSC(n2nc(-c3cn(-c4ccccc4)nc3-c3ccc([N+](=O)[O-])cc3)c(O)c2-c2cccc([N+](=O)[O-])c2)=N1 | 7.81 µg/mL (≈ 12.2 µM) | < 5% |  |
| CO[C@H]1/C=C/O[C@@]2(C)Oc3c(C)c(O)c4c(O)c(c(/C=N/N5CCN(C)CC5)c(O)c4c3C2=O)NC(=O)/C(C)=C\C=C\[C@H](C)[C@H](O)[C@@H](C)[C@@H](O)[C@@H](C)[C@H](OC(C)=O)[C@@H]1C [RIFAMPIN] | 0.24 µg/mL (≈ 0.292 µM) |  |  |
| NC(=S)N/N=C1\CSC(n2nc(-c3cn(-c4ccccc4)nc3-c3ccc([N+](=O)[O-])cc3)c(O)c2-c2ccc(F)cc2)=N1 |  | < 5% | Active |
| NC(=S)N/N=C1\CSC(n2nc(-c3cn(-c4ccccc4)nc3-c3ccc(Cl)cc3)c(O)c2-c2ccc(Cl)cc2)=N1 | 62.5 µg/mL (≈ 101 µM) | < 5% |  |
| NC(=S)N/N=C1\CSC(n2nc(-c3cn(-c4ccccc4)nc3-c3cccc([N+](=O)[O-])c3)c(O)c2-c2ccc(F)cc2)=N1 |  | < 5% |  |
| NC(=S)N/N=C1\CSC(n2nc(-c3cn(-c4ccccc4)nc3-c3ccc(Br)cc3)c(O)c2-c2cccc([N+](=O)[O-])c2)=N1 |  | < 5% |  |
| NC(=S)N/N=C1\CSC(n2nc(-c3cn(-c4ccccc4)nc3-c3ccc(Br)cc3)c(O)c2-c2ccc(Cl)cc2)=N1 |  | < 5% |  |
| NC(=S)N/N=C1\CSC(n2nc(-c3cn(-c4ccccc4)nc3-c3ccc(Br)cc3)c(O)c2-c2ccc(F)cc2)=N1 |  | < 5% |  |
| NC(=S)N/N=C1\CSC(n2nc(-c3cn(-c4ccccc4)nc3-c3ccc(Cl)cc3)c(O)c2-c2ccc([N+](=O)[O-])cc2)=N1 |  | < 5% | Active |
| NC(=S)N/N=C1\CSC(n2nc(-c3cn(-c4ccccc4)nc3-c3ccc(Cl)cc3)c(O)c2-c2ccc(F)cc2)=N1 |  | < 5% | Active |
